Test results taken from patent publication US20190030053A1, “COMPOSITION FOR INCREASING EXPRESSION OF PGC-1alpha” (BENEBIOSIS CO., LTD., priority 2016, published 2019).
“Also recorded” adds a separate entry of the source.

Assays:
PGC-1α and related genes [1] = assay: Gene expression by SL treatment in normal mouse models; assay type: in vivo; conditions: normal C57BL/6 mice, oral 0.1 mg/kg/day, 10 weeks, organs, skeletal muscles, abdominal fat
Description: In order to investigate relative gene expression changes by organs compared with before SL (3′-SL & 6′-SL) aministration, 4-week-old C57BL/6 mice were purchased from Dooyeul Biotech (Korea). Water was freely accessible, and a commercially available pellet feed (Dooyeul Biotech, Korea) was given for two weeks. […]
Sialyllactose or deionized water was orally administered daily. […] The dietary intake and body weight change were measured every 5 days. […]
The gene expression changes by administration of the SL (3′-SL & 6′-SL) compositions were quantitatively compared for eight main organs (heart, hippocampus, brain, spinal cord, lung, liver, spleen, and kidney), three skeletal muscles (soleus muscle, quadriceps femoris muscle, and gastrocnemius muscle), and abdominal fat. RNA was extracted by TRIzol agent (Invitrogen). cDNA was synthesized by using RNA, which has been extracted as above and quantified, and a reverse transcription system (Promega, USA). The expression patterns of PGC-1α and related genes were measured by using pre-designed primers and probes (Applied Biosystems; PGC-1α, Mm00447181_m1, GAPDH, and Mm99999915_q1) for the synthesized cDNA and analysis targets (Fndc5, PGC-1α, Erra, UCP1, SOD2, and GPX1). […]

PGC-1α and related genes [2] = assay: Gene expression in brain and hippocampus of epilepsy/convulsion brain disease models; assay type: in vivo, rat; conditions: Noda epileptic rats, oral 0.1 mg/kg/day, 10 weeks
Source text: In order to investigate the gene expression changes by the treatment with SL (3′-SL & 6′-SL) compositions in epilepsy/convulsion brain disease models, 4-week-old normal SD rats and epilepsy/convulsion brain disease models (Noda epileptic rat, NER) were purchased from Central Lab Animal (Korea). Water was freely accessible, and a commercially available pellet feed (Dooyeul Biotech, Korea) was given for two weeks. At 6 weeks of age, the SD rats were divided into four groups (composed of 8 animals per group): Eight 6-week-old male SD rats (normal rats; initial body weight, average 176.3±13.3 g) treated with a normal diet were used for a control group. […]
Sialyllactose or DW was orally administered daily. […] The dietary intake and body weight change were measured every 5 days. […]
The gene expression changes by the treatment with SL (3′-SL & 6′-SL) compositions were quantitatively compared in two main organs (brain and hippocampus) associated with bran diseases. RNA was extracted by TRIzol agent (Invitrogen). cDNA was synthesized by using RNA, which has been extracted as above and quantified, and a reverse transcription system (Promega, USA). The expression patterns of PGC-1α and related genes were measured by using pre-designed primers and probes (Applied Biosystems; PGC-1α, Mm00447181_m1, […]) for the synthesized cDNA and analysis targets (Fndc5, PGC-1α, Erra, UCP1, BDNF, SOD2, and GPX1). […]

| SMILES | expression levels of analysis targets (Fndc5, PGC-1α, Erra, UCP1) vs control group (PGC-1α and related genes [1]) | expression levels of PGC-1α and related genes vs SL non-administration (epilepsy/convulsion brain disease model) group (PGC-1α and related genes [2]) | expression levels of analysis targets (Fndc5, PGC-1α, Erra, UCP1) vs control group (PGC-1α and related genes [1]; 0.1 mg/kg/day) |
| --- | --- | --- | --- |
| CC(=O)N[C@H]1[C@H]([C@H](O)[C@H](O)CO)O[C@@](OC[C@H]2O[C@@H](O[C@H]3[C@H](O)[C@@H](O)[C@H](O)O[C@@H]3CO)[C@H](O)[C@@H](O)[C@H]2O)(C(=O)O)C[C@@H]1O [6′-SL, α-NeuNAc-(2→6)-β-D-Gal-(1→4)-D-Glc] | higher than the negative control group | significant increases | – |
| CC(=O)N[C@H]1[C@H]([C@H](O)[C@H](O)CO)O[C@@](O[C@H]2[C@@H](O)[C@@H](CO)O[C@@H](O[C@H]3[C@H](O)[C@@H](O)C(O)O[C@@H]3CO)[C@@H]2O)(C(=O)O)C[C@@H]1O (stereo partly drawn) [3′-SL, α-NeuNAc-(2→3)-β-D-Gal-(1→4)-D-Glc] | – | relatively low compared with 6′-SL | higher than the negative control group; also recorded: less effective than the 6′-SL administration groups |
